{"source": "patent US8394852B2", "about": "“Inotilone derivatives as coherent biological response modifier (cBMR)” (Sami Labs Ltd, priority 2009, dated 2013)", "key": {"[1]": {"test_system": "iNOS (inducible nitric oxide synthase)", "assay": "LPS-induced iNOS protein expression by Western blotting in RAW 264.7 cells", "type": "cell-based, murine", "settings": "E coli LPS 100 ng/mL, co-treatment", "method": "(§1) RAW 264.7 cells, derived from murine macrophage (American Type Culture Collection, MD, USA) were cultured in DMEM supplemented with 10% endotoxin-free, heat-inactivated fetal calf serum, 100 units/mL penicillin and 100 mcg/mL streptomycin, the culture media was changed to serum-free DMEM without phenol red on reaching cell density 2-3×10^6 cells/mL, and the cells activated by incubation in medium containing E coli LPS (100 ng/mL). Test compounds dissolved in dimethylsulfoxide were added together with the LPS. Cells treated with 0.05% DMSO acted as vehicle control.\n(§2) The effects of test compounds on LPS-induced iNOS (inducible nitric oxide synthase) and COX-2 protein expressions were studied by Western blotting."}, "[2]": {"test_system": "nuclear factor-kappaB (NFkappaB)", "settings": "cited from earlier work"}, "[3]": {"test_system": "PI3K/Akt and extracellular signal-regulated kinase 1/2 and p38 mitogen-activated protein kinase", "settings": "cited from earlier work"}, "[4]": {"test_system": "iNOS", "settings": "cited from earlier work"}, "[5]": {"test_system": "COX-2", "assay": "LPS-induced COX-2 protein expression by Western blotting in RAW 264.7 cells", "type": "cell-based, murine", "settings": "E coli LPS 100 ng/mL, co-treatment", "method": "as §1, §2"}, "[6]": {"test_system": "COX-2", "settings": "through decreasing the enzyme activity of COX-2; cited from earlier work"}}}
{"smiles": "CC1=CC(=O)/C(=C/c2ccc(O)c(O)c2)O1", "note": "[4a, Inotilone]", "values": [{"measurement": "effect on LPS-induced iNOS protein expression", "setting": "[1]", "value": "suppressed the induction of iNOS"}, {"measurement": "LPS-induced nuclear translocation of NFkappaB subunit and NFkappaB-dependent transcriptional activity", "setting": "[2]", "value": "reduction of LPS-induced nuclear translocation of NFkappaB subunit and the NFkappaB-dependent transcriptional activity"}, {"measurement": "LPS-induced activation of PI3K/Akt, ERK 1/2 and p38 MAPK", "setting": "[3]", "value": "inhibited LPS-induced activation of PI3K/Akt and extracellular signal-regulated kinase 1/2 and p38 mitogen-activated protein kinase"}, {"measurement": "protein and mRNA expression of iNOS", "setting": "[4]", "value": "blocked protein and mRNA expression of iNOS"}, {"measurement": "effect on LPS-induced COX-2 protein expression", "setting": "[5]", "value": "but not of COX-2"}, {"measurement": "prostaglandin E(2) production", "setting": "[6]", "value": "inhibited prostaglandin E(2) production"}]}
{"smiles": "COc1cc(/C=C2\\OC(C)=CC2=O)ccc1O", "note": "[4b, 2-(4-Hydroxy-3-methoxy-benzylidene)-5-methyl-furan-3-one]", "values": [{"measurement": "effect on LPS-induced iNOS protein expression", "setting": "[1]", "value": "no effect on LPS induced iNOS protein expression"}, {"measurement": "effect on LPS-induced COX-2 protein expression", "setting": "[5]", "value": "slightly stimulated LPS-induced COX-2 expression"}]}
